Assay results from a melting point compilation (Tetko et al.; mined from patent text by program, amines drawn as free bases though some values may be those of a salt).

Point of comparison: `CCn1c(N)c(-c2nccn2COCC[Si](C)(C)C)c(=O)c2ccc(-c3ccc(C(C)C(=O)O)cc3)nc21` (configuration not stated), melting point 248 °C. Against it:
- NC(=O)C1CCN(C(=O)c2ccc(NCc3cnc4nc(N)nc(N)c4n3)cc2)CC1 — higher, > 300 °C
- O=C(O)c1cc2cnc3ccccc3n2c1 — lower, 242 to 247 °C
- COc1cc(C(C)C)c(Oc2cnc(N)nc2N)cc1I — lower, 204 to 206 °C
- O=C(NN=Cc1cccc(C(F)(F)F)c1Cl)c1ccc(O)cc1 — higher, 262 °C
- Cc1onc(CCc2ccccc2)c1C(=O)O — lower, 154 to 156 °C
- CCCn1nc(-c2sc(C(=O)NC3CC3)nc2-c2ccccc2)ccc1=O — lower, 146 to 147 °C
- O=C1CCC(N2Cc3c(CNC(=O)c4ccc(Cl)c(Cl)c4)cccc3C2=O)C(=O)N1 (configuration not stated) — higher, > 260 °C
- Cc1ccc(C2=Cc3cc(C(=O)N[C@H]4CC[C@H](CN(C)C5CCOCC5)CC4)ccc3OC2)cc1 — lower, 205 to 207 °C
- Cc1ccc(C2C=C3C(=CCC4=C3NN(C)CC4)S2=O)cc1 (configuration not stated) — lower, 160 to 162 °C
- Cc1noc(C)c1S(=O)(=O)N(C)c1ccc(Cl)cc1[N+](=O)[O-] — lower, 99 to 101 °C
- CC(=O)Nc1ccc(S(=O)(=O)N2CCN(c3c(F)cc4c(=O)c(C(=O)O)cn(CC(C)C)c4c3F)CC2)cc1 — lower, 181 to 183 °C
- N#Cc1sc(Cl)nc1Cl — lower, 34 to 35 °C
- O=c1[nH]c(N[N+](=O)[O-])ncc1Cc1cccc2ccccc12 — lower, 226 to 227 °C
- OCCCOc1cccc2cccnc12 — lower, 126 to 127 °C
- CC(=O)Nc1ccc(NC(=NC#N)Oc2ccccc2)cn1 — lower, 194 °C
- Cc1nc(N2CCN(Cc3ccc(OC(F)(F)F)cc3)C2=O)sc1C(=O)NCC1CC1 — lower, 184 to 186 °C
- CC(C)[C@H](NC(=O)OC(C)(C)C)C(=O)C1CC(=O)NC1=O (some centres not stated) — lower, 123 to 124 °C
- N#Cc1ccc(N2C(=O)C=C(O)C2Cc2ccccc2)cc1Cl (configuration not stated) — lower, 188 to 189 °C
- COc1cc(C(=O)c2cccs2)cc(OC)c1OC — lower, 83 °C
- O=C1N(Cc2ccc(OCc3ccccc3)cc2)c2ccccc2C12COc1cc3c(cc12)CCO3 (configuration not stated) — lower, 169 to 170 °C
- O=[N+]([O-])c1cn(-c2cccnc2)nc1-c1ccccc1 — lower, 144 to 146 °C
- COc1cccc(OCCCSCCC(=O)O)c1 — lower, 53 to 55 °C
- CC1(CO)Cc2nnc(-c3ccc(-c4ccc(F)cc4)cc3C(F)(F)F)n2CCS1 (configuration not stated) — lower, 202 to 204 °C
- CN(C)C(=S)SC(C[N+](=O)[O-])c1ccc2c(c1)OCO2 (configuration not stated) — lower, 122 to 124 °C
- Cc1ccc(F)cc1C(=O)Nc1ccc(C(=O)N2Cc3cccn3Cc3ccccc32)c(Cl)c1 — lower, 191 to 195 °C
- CC(C)Oc1ccc2c(c1)C(=O)c1ccc(C(=O)O)cc1CC2 — lower, 174 to 177 °C
- CN(CCOc1ccc(CCOCCc2ncn[nH]2)cc1)c1nc2ccccc2o1 — lower, 127 to 129 °C
- CNc1nc(OC(F)F)cc(OC(F)F)n1 — lower, 54 to 55 °C
- CS(=O)(=O)c1ccnc(-c2nc(=O)c3ccccc3s2)c1 — higher, 300 to 301 °C
- O=C(Nc1ccc(-n2nc(C(F)(F)F)cc2C(F)(F)F)cc1)c1cccc([N+](=O)[O-])c1 — lower, 203 to 204 °C
- Cc1oc2c(NC(=O)c3c(Cl)cccc3Cl)cc(C(N)=O)cc2c1C — higher, > 250 °C
- O=C(Nc1ccccc1C(=O)O)c1cccc(OC(F)F)c1 — lower, 186 to 191 °C
- O=S(=O)(NC1CCC(O)CC1)c1cccc2ccccc12 (configuration not stated) — lower, 174 °C
- CCCCCCS(=O)(=O)c1nn2c(=O)cc(C)nc2s1 — lower, 111 to 115 °C
- CC(N1C(=O)C(=O)N(c2ccc(Cl)cc2)C1=S)C(C)(C)C (configuration not stated) — lower, 199 to 200 °C
- CC(=O)c1ccc(OCCCN2CCC(c3noc4cc(F)ccc34)CC2)c(Br)c1 — lower, 126 to 128 °C
- Cc1cccc([N+](=O)[O-])c1C=NO — lower, 190 to 192 °C
- CNC(=O)c1cc2c(nc(C)n2C)c2c1CCC(OC)(c1ccccc1C)O2 (configuration not stated) — higher, 257 to 261 °C
- Clc1cc2c(-c3ccccc3)coc2c2ccccc12 — lower, 66 to 69 °C
- CCOc1nn(-c2ccc(C(F)(F)F)cc2)cc1CCCOc1ccc(CCC(=O)O)cc1OC — lower, 125 to 126 °C
- Cn1c2ccccc2c2c3ccc(Cl)cc3c(=O)[nH]c21 — higher, > 310 °C
- N#Cc1cccn1-c1cc(C(=O)N=C(N)N)cc(C(=O)N=C(N)N)c1 — higher, 251 to 253 °C
- Clc1nc(N2CCOCC2)nc(N2CCOCC2)n1 — lower, 174 °C
- CC(=O)Nc1c(N)cc(Br)cc1OCc1ccccc1 — lower, 185 °C
- CCCCc1nc2c(N)nc3ccccc3c2n1CCNS(=O)(=O)c1ccc(C)cc1 — lower, 187 to 188 °C
- O=C(NCCN1CCC(Oc2ccc(Cl)c(Cl)c2)CC1)c1nnc(Nc2ccccc2Cl)o1 — lower, 161 to 162 °C
- O=C(NC(Cc1c[nH]c2ccccc12)C(=O)O)C(S)Cc1ccccc1 (configuration not stated) — lower, 117 to 119 °C
- NS(=O)(=O)c1ccc(CCO)s1 — lower, 70 to 72 °C
- CCc1nc2c(cnn2CC)c(NC2CCOCC2)c1CNC(=O)c1cccc(C(=O)NCc2cc(Cl)cc(-c3cccc(CN4CCCNCC4)c3)c2)c1 — lower, 121 to 124 °C
- O=C(OCCN1CCOC1=O)c1ccccc1Nc1ccnc2c(C(F)(F)F)cccc12 — lower, 158 to 160 °C
- O=C(c1cccs1)c1cnc2[nH]ncc2c1NC1CC1 — higher, 268 to 270 °C
- O=C(C=Cc1ccccc1F)C=Cc1ccccc1F — lower, 68 to 72 °C
- O=C1Nc2cccc(-c3cccc(NC(=O)c4ccc(O)cc4)c3)c2/C1=C/c1ccc[nH]1 — lower, 236 to 238 °C
- CC(C)(C)OC1CCC(C(=O)O)CC1 (configuration not stated) — lower, 100 to 105 °C
- C1=Nc2ccccc2N2CCCc3cccc1c32 — lower, 118 to 120 °C
- CCOC(=O)C(=O)Nc1c([N+](=O)[O-])cc(Br)c2cccnc12 — lower, 213 to 215 °C
- O=CC1=CCC(C=CC(=O)O)C=C1 (configuration not stated) — lower, 134 to 138 °C
- Cn1ccn(CO)c1=O — lower, 102 to 104 °C
- CC(C)(Sc1ccncc1)C(=O)O — lower, 190 to 192 °C
- CCn1c(CNc2ccncc2)nc2c(C#N)nc(-c3cccc(C(F)(F)F)c3)cc21 — higher, 340 °C
- NC(=O)c1sc2ncnc(-c3cccc(NC(=O)Nc4cccnc4)c3)c2c1N — lower, 199 to 200 °C
- CCOCc1nc2c(N)nc3cccnc3c2n1CC(C)(C)OCCS(C)(=O)=O — lower, 189 to 191 °C
- COc1cc(OC)c2c(=O)[nH]c(-c3cccc(N4CCN(CC(C)C)CC4)n3)nc2c1 — lower, 188 to 189 °C
- CC(C)(C)Nc1nc(-c2ccc(F)cc2)c(-c2ccc(S(C)(=O)=O)cc2)s1 — higher, 250 to 253 °C
- O=C(Nc1ccc(Cl)c(C(F)(F)F)c1)c1ccccc1 — lower, 130 to 131 °C
- CC(C)(C)OC(=O)N1CCC(NCc2ccccc2N)CC1 — lower, 79 to 81 °C
- CC(O)c1cccc(S(N)(=O)=O)c1 (configuration not stated) — lower, 137 to 139 °C
- CCCCCCCCCCCCCCc1ccc(S(=O)(=O)Cl)cc1 — lower, 32 to 33 °C
- CCOC(=O)C1CCNC(=O)C1=NCCc1ccccc1 (configuration not stated) — lower, 99 to 100 °C
- Cc1ccc(S(=O)(=O)N(C)c2ccc(Cl)cc2C#N)cc1 — lower, 145 to 147 °C
- COc1cc2c(cc1OC)CN(CCCCc1ccc(NC(=O)c3cccc4c(=O)c5cccc(C)c5[nH]c34)cc1)CC2 — lower, 140 °C
